The target in one assay is T1, α2A (Homo sapiens, UniProt P08913).
T1 construct: gene ADRA2A; full-length receptor; HEK293 cell membranes
The experiment in a line: competitive radioligand binding, HEK293 membranes. An excerpt:
competitive radioligand binding, HEK293 membranes on α2A

Another assay concerns the target T2, H1 (Homo sapiens, UniProt P35367).
T2 construct: gene HRH1; full-length receptor; HEK293 cell membranes
The experiment in a line: competitive radioligand binding, HEK293 membranes. The text has this: competitive radioligand binding, HEK293 membranes on H1

The next assay concerns the target T3, D3 (Homo sapiens, UniProt P35462).
T3 construct: gene DRD3; full-length receptor; HEK293 cell membranes
The experiment in a line: competitive radioligand binding, HEK293 membranes. An excerpt: competitive radioligand binding, HEK293 membranes on D3

The next assay addresses T4, 5-HT3 (Homo sapiens, UniProt P46098).
T4 construct: gene HTR3A
The experiment in a line: biochemical. Also noted: species or system HEK293; PDSP competitive radioligand binding, membranes of transfected HEK293 cells, filtration, Ki by Cheng-Prusoff. The method, then: (§1) Competitive radioligand binding assays were performed at the NIMH Psychoactive Drug Screening Program (PDSP) using membranes from transiently transfected HEK293 cells in 96-well format as described. Complete, target-specific protocols are available at the PDSP website (https://pdsp.unc.edu/pdspweb/?site=assays). Primary screenings were run at a single test concentration (10 µM) in quadruplicate. […] Secondary assays were conducted in triplicate using 12-point serial dilutions (0, 0.1, 0.3, 1, 3, 10, 30, 100, 300 nM; 1, 3, 10 µM). Assays were performed in a final volume of 125 µL per well in binding buffer, as detailed in the NIMH PDSP protocols (e.g., standard binding buffer: 50 mM Tris-HCl, pH 7.4, 10 mM MgCl2, 0.1 mM EDTA). Radioligand concentrations were chosen near the target-specific Kd. Total and nonspecific binding were defined in the absence and presence, respectively, of 10 µM reference ligand specific for each receptor. After 90 min incubation at room temperature, reactions were terminated by vacuum filtration onto 0.3% polyethyleneimine-pretreated UniFilter-96 GF/C Microplates using a FilterMate harvester, washed three times with ice-cold buffer (50 mM Tris HCl, pH 7.4), dried, treated with MicroScint-O [compound left out] scintillation cocktails, and counted on a MicroBeta counter. Equilibrium inhibition constants (Ki) were calculated from fitted IC50 values using the Cheng–Prusoff equation [14] with the assay-specific radioligand concentration and Kd. TABLE 1. […] Results represented mean ± SEM from a minimum of 3 independent assays, each in triplicate. ND=not determined.

The next assay deals with T5, D5 (Homo sapiens, UniProt P21918).
T5 construct: gene DRD5
The experiment in a line: biochemical. Also noted: species or system HEK293; PDSP competitive radioligand binding, membranes of transfected HEK293 cells, filtration, Ki by Cheng-Prusoff. Here is the method:
as §1

The target of another assay is T6, DOR (Homo sapiens, UniProt P41143).
T6 construct: gene OPRD1
The experiment in a line: biochemical. The arrangement: species or system HEK293; PDSP competitive radioligand binding, membranes of transfected HEK293 cells, filtration, Ki by Cheng-Prusoff. The method, then: as §1

In a further assay the target is DRD2 (Homo sapiens, UniProt P14416). The experiment in a line: biochemical. The arrangement: species or system HEK293; PDSP competitive radioligand binding, membranes of transfected HEK293 cells, filtration, Ki by Cheng-Prusoff. The method, then: as §1
In another assay the target is T7, DRD4 (Homo sapiens, UniProt P21917).
T7 sequence (P21917 1-419): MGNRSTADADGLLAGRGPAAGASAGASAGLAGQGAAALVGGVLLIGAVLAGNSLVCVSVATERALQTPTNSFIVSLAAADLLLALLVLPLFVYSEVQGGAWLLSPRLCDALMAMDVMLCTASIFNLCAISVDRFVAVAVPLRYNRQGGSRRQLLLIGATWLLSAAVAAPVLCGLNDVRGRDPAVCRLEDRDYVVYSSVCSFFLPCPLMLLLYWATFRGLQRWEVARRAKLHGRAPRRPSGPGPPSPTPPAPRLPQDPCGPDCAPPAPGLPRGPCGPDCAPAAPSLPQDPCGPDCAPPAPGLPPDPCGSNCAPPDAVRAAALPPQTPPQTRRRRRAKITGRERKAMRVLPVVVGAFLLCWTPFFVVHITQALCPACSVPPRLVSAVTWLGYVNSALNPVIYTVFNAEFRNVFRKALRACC
The experiment in a line: biochemical. Also noted: species or system HEK293; PDSP competitive radioligand binding, membranes of transfected HEK293 cells, filtration, Ki by Cheng-Prusoff. The method, then:
as §1

Another assay deals with T8, MOR (Homo sapiens, UniProt P35372).
T8 construct: gene OPRM1
The experiment in a line: biochemical. The arrangement: species or system HEK293; PDSP competitive radioligand binding, membranes of transfected HEK293 cells, filtration, Ki by Cheng-Prusoff. The method, then: as §1

The target of another assay is T9, SERT (Homo sapiens, UniProt P31645).
T9 construct: gene SLC6A4
The experiment in a line: biochemical. The arrangement: species or system HEK293; PDSP competitive radioligand binding, membranes of transfected HEK293 cells, filtration, Ki by Cheng-Prusoff. The method, then: as §1

Another assay addresses T10, α1B (Homo sapiens, UniProt P35368).
T10 construct: gene ADRA1B
The experiment in a line: biochemical. Also noted: species or system HEK293; PDSP competitive radioligand binding, membranes of transfected HEK293 cells, filtration, Ki by Cheng-Prusoff. Here is the method: as §1

A further assay addresses T11, α1D (Homo sapiens, UniProt P25100).
T11 construct: gene ADRA1D
The experiment in a line: biochemical. Also noted: species or system HEK293; PDSP competitive radioligand binding, membranes of transfected HEK293 cells, filtration, Ki by Cheng-Prusoff. The method, then: as §1

In another assay the target is T12, β1 (Homo sapiens, UniProt P08588).
T12 construct: gene ADRB1
The experiment in a line: biochemical. Also noted: species or system HEK293; PDSP competitive radioligand binding, membranes of transfected HEK293 cells, filtration, Ki by Cheng-Prusoff. The method, then: as §1

[1] abbreviates: read-out: N-desmethyl-xanomeline (PDSP) pKi (converted).

We go through two compounds from doi:10.1101/2025.11.20.689572v1 (biorxiv, 2025).

Molecules are shown by their SMILES. Where two headings read alike, the source gives them in different places.

T1 sequence (P08913 whole entry): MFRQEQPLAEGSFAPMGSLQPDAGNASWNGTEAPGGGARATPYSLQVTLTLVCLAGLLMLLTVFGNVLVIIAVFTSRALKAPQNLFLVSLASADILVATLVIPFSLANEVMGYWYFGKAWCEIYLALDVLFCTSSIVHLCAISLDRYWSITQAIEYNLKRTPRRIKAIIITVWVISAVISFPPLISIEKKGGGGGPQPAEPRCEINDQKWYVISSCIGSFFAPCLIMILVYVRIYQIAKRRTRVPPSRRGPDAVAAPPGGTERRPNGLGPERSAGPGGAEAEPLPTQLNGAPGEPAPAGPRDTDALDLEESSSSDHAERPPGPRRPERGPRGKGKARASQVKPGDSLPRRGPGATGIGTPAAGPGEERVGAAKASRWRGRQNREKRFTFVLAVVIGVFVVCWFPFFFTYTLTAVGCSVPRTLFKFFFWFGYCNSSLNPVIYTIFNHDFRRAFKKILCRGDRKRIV
T11 sequence (P25100 whole entry): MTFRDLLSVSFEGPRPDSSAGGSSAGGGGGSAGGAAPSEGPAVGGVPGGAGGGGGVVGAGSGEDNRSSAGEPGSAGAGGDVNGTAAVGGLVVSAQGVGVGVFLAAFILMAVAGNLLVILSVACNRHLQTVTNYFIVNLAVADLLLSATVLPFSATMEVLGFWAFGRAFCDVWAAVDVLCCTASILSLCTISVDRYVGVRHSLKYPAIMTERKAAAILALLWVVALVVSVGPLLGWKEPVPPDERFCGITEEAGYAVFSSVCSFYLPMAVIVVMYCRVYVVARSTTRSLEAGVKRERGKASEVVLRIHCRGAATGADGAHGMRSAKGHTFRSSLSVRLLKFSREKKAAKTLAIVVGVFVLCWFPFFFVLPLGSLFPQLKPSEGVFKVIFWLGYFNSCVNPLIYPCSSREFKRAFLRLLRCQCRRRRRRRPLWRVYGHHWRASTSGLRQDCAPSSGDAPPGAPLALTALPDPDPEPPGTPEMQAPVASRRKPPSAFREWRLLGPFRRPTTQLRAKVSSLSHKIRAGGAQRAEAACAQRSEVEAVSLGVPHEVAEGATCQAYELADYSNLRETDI
T4 sequence (P46098 whole entry): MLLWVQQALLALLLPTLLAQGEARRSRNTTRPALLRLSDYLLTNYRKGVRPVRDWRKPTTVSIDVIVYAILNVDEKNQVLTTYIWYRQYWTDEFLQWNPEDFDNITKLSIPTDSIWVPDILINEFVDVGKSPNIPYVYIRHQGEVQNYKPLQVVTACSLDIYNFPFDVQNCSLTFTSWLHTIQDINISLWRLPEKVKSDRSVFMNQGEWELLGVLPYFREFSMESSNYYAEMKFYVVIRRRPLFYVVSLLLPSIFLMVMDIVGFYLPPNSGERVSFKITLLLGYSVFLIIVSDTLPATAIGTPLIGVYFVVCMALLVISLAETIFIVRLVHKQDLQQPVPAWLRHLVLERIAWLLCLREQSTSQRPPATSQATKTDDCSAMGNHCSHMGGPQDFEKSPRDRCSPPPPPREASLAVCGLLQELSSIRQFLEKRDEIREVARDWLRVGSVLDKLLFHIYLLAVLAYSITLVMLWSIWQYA
T2 sequence (P35367 whole entry): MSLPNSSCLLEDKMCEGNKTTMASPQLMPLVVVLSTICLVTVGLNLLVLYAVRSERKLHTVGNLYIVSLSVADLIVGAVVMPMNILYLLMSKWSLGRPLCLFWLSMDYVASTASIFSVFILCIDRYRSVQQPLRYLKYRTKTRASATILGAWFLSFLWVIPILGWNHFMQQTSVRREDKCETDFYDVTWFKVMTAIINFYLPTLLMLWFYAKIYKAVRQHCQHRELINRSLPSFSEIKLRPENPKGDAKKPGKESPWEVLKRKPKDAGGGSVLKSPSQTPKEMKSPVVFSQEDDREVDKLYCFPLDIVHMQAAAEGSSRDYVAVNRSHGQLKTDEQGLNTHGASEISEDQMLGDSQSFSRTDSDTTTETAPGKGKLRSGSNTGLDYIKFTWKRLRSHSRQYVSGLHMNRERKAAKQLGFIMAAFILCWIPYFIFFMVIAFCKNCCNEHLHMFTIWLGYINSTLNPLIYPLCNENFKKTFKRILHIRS
T12 sequence (P08588 whole entry): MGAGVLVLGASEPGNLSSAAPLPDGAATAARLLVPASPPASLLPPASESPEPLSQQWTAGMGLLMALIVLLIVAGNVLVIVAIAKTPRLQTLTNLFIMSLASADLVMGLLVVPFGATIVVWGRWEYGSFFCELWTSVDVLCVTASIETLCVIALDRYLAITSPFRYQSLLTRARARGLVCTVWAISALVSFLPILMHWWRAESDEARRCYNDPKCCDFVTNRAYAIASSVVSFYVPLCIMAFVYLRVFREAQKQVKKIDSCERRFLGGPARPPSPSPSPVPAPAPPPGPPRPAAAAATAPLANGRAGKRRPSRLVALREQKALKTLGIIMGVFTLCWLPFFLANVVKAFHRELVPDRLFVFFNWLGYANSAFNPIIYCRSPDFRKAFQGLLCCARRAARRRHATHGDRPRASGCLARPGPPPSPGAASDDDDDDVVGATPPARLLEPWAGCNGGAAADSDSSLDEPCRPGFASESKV
DRD2, sequence (P14416 whole entry): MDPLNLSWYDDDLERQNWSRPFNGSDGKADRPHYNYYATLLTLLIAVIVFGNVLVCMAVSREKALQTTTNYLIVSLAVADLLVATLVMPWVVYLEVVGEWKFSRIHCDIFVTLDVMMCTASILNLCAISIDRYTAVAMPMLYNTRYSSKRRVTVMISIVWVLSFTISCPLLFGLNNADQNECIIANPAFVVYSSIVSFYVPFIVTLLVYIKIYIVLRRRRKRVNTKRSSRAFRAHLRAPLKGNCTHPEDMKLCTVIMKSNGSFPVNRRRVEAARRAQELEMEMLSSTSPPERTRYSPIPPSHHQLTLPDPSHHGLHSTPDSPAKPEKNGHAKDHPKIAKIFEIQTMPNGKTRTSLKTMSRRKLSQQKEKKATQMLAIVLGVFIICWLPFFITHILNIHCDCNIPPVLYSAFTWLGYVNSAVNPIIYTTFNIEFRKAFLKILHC
T5 sequence (P21918 whole entry): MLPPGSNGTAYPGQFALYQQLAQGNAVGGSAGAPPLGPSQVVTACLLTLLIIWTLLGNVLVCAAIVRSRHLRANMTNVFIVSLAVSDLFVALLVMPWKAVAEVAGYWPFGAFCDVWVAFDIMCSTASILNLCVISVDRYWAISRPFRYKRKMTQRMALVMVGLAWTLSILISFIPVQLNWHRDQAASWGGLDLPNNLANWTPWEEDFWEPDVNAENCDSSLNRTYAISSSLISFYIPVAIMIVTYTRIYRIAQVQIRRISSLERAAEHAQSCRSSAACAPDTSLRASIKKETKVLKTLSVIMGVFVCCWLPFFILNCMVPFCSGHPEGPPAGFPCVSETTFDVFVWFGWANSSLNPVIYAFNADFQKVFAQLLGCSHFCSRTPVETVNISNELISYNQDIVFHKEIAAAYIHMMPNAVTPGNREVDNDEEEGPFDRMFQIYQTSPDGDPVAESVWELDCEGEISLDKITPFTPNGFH
T8 sequence (P35372 whole entry): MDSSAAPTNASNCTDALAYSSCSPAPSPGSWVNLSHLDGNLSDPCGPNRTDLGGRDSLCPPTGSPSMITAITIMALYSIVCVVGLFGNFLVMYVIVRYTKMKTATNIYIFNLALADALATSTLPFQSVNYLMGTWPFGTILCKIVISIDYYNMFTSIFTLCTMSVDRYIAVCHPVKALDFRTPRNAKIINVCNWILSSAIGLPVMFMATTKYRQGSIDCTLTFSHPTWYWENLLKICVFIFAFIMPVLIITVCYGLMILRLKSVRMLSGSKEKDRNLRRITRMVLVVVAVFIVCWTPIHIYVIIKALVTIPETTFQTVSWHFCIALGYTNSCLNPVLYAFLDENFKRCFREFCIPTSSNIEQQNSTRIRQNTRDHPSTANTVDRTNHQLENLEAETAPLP
T3 sequence (P35462 whole entry): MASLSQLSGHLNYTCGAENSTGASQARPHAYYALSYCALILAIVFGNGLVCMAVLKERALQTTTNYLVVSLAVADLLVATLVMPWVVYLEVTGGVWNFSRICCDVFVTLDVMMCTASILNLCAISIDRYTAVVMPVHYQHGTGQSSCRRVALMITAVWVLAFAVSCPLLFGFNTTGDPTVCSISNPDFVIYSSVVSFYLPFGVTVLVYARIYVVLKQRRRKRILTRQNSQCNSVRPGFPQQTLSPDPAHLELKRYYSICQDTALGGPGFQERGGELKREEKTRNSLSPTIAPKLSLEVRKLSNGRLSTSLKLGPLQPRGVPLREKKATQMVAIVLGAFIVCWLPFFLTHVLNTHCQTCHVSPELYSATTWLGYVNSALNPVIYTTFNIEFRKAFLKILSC
T10 sequence (P35368 whole entry): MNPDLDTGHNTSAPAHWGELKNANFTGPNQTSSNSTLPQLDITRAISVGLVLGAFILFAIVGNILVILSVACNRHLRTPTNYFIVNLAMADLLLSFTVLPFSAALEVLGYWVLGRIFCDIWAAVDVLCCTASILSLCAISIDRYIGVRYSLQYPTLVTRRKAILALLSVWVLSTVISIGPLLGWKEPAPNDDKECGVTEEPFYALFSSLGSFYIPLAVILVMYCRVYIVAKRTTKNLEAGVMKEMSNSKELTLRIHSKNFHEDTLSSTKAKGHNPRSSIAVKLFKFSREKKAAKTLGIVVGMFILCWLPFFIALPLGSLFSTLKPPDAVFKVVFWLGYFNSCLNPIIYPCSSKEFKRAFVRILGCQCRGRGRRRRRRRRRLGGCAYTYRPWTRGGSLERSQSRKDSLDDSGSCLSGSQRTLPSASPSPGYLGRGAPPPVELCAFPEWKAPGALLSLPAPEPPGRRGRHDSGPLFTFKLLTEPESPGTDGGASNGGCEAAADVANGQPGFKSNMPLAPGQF

In the case of `CCCCCCOc1nsnc1C1=CCCNC1` [N-desmethylxanomeline], the Ki at α2A was 0.437 µM; on H1, 0.724 µM; at D3 it was 0.646 µM; at 5-HT3 (setting [1]), 2.4 µM; at D5 (setting [1]), over 10 µM; at DOR (setting [1]) it was over 10 µM. Besides, the Ki on DRD2 (setting [1]) is 6.61 µM; at DRD4 (setting [1]), over 10 µM; on MOR (setting [1]), 7.94 µM; at SERT (setting [1]), 1.62 µM; at α1B (setting [1]), 7.24 µM; on α1D (setting [1]) it was 3.31 µM. Further, the Ki at β1 (setting [1]) was 8.71 µM.
On to `CCCCCCOc1nsnc1C1=CCCN(C)C1` [Xanomeline], for which the Ki at α2A was 0.955 µM; at H1, 0.1 µM; on D3 it was 0.251 µM; on 5-HT3, over 10 µM; at D5, over 10 µM; at DOR it was over 10 µM. Moreover, the Ki at DRD2 was over 10 µM; on DRD4, 2 µM; on MOR, over 10 µM; at SERT, over 10 µM; at α1B, over 10 µM; on α1D it was over 10 µM. The compound further registered a Ki on β1 of over 10 µM.
